Data set [1] deals with barnyardgrass (Echinochloa crusgalli). The experiment in a line: Example 9, Procedure II: Herbicide No. 1 + pretilachlor (No. 13) with antidotes. Type of data set: in vivo. On the procedure:
(§1) Containers were filled and compacted with a fumigated silt loam top soil to a depth of about 1.3 cm from the top of the container. A first container was designated as an untreated control, a second container was designated as a herbicide control, and a third container was designated as a herbicide + antidote test container. Each of the containers was seeded with a crop species. A measured amount of herbicide dispersed or dissolved in acetone was applied to a measured quantity of soil. To this same quantity of soil treated with herbicide, there was added a measured amount of antidote dispersed or dissolved in acetone. The quantity of soil treated with the herbicide and antidote was thoroughly mixed to incorporate the herbicide and antidote in the soil uniformly. The seed bed in the third container of soil was covered with the soil treated with the herbicide and antidote and the container was leveled. For each test series, the seed beds of the first and second containers were likewise covered by soil layers. the cover layer of the first container was not treated with herbicide or antidote.
(§2) The containers were then placed on a bench in a greenhouse and sub-irrigated as required for the duration of the test. […] Plant response is measured in terms of percent injury. Antidote efficacy is indicated as the difference in plant injury by the herbicide(s) without the antidote and with the antidote.
(§3) This procedure is the same as Procedure I, but modified in the manner that after incorporation of the chemicals (herbicide and antidote) the containers with the covered seedbed were treated with an initial overhead irrigation equivalent to 0.6 cm rainfall, then subsequently sub-irrigated as required on greenhouse benches.
(§4) In the series of greenhouse tests described below, for routine screening purposes the herbicide/antidote compositions were tested in crop/weed combinations involving corn as the crop and either or both of the weeds barnyardgrass (Echinochloa crusgalli), a monocotyledonous weed, and velvetleaf (Abutilon theophrasti), a dicotyledonous weed. In the tables below, these weeds are indicated by the symbols "BYG" and "VL", respectively.
(§5) In this example the safening effect on a composition comprising Herbicide No. 1 and another leading rice herbicide, i.e., Herbicide No. 13, was investigated using the same antidotes and test procedure described in the preceding example. Herbicide No. 13 is pretilachlor, active ingredient used in the commercial rice herbicides RIFIT®, SOFIT® and SOFIT® SUPER.

Data set [2] relates to velvetleaf (Abutilon theophrasti). Described as above. Type of data set: in vivo. On the procedure:
as §1, §2, §3, §4, §5

Data set [3] relates to corn. Description: Example 25, greenhouse preemergence test: Antidote Nos. 1 and 2 against Herbicide Nos. 1-3. The following applies: Preemergence. It is filed as in vivo, Corn (Pioneer 3424 variety). As to the method:
The chemicals were tested in both preemergence and post-emergence modes of application. The herbicides were prepared and applied as wettable powders; dichlormid was applied as an emulsifiable concentrate, while the naphthalic anhydride was applied as a coating on the corn seed prior to planting.
Test data from the preemergence tests are shown in Table 25A and from the post-emergence tests in Table 25B. In the tables, the concentration of chemicals is shown in terms of active ingredient in grams per hectare (G/ha); concentrations of the naphthalic anhydride were not measured per se, but were present as in conventional, normally-coated applications. Corn injury is shown in terms of percent inhibition of growth.

The subject of data set [4] is corn. The experiment in a line: Example 11, Procedure II: Herbicide No. 1 + metazachlor (No. 14) with antidotes. Type of data set: in vivo. On the procedure:
as §1, §2, §3
In this example, yet another α-chloroacetanilide co-herbicide, metazachlor (Herbicide No. 14) was combined with Herbicide No. 1 for investigation of the effect of various safeners on that composition. Metazachlor is the active ingredient in the commercial herbicide BUTISAN® S, used here as a 500 g/L formulation.

Data set [5] concerns corn. Description: Example 3, Procedure I: antidotes against Herbicide No. 1. It is filed as in vivo. The following applies: for % Injury Corn: no antidote. As to the method:
as §1, §2
This example details the results of tests with Antidote Nos. 12, 15 and 16 to safen Herbicide No. 1 over application rates ranging from 4.48 kg/ha down to 0.56 kg/ha, in corn in the presence of barnyardgrass. Procedure I described above was used in these tests.

Data set [6] relates to corn. Description: Example 13, Procedure II: Herbicide No. 1 + acetochlor (No. 6) with dichloroacetamide antidotes. Type of data set: in vivo. Conditions: for % Injury Corn: no antidote. As to the method:
as §1, §2, §3
In this example a plurality of dichloroacetamide antidotes were tested for their safening efficacy against a herbicidal composition comprising Herbicide No. 1 and a co-herbicide, acetochlor (Herbicide No. 6) in corn in the presence of velvetleaf. The procedure used in this example was Procedure II above.

For data set [7], the system named is corn. The experiment in a line: Example 5, Procedure I: Herbicide No. 1 + alachlor (No. 7) with Antidote Nos. 15 and 16. Conditions: for % Injury Corn: no antidote. Type of data set: in vivo. As to the method: as §1, §2
This example describes tests with Antidote Nos. 15 and 16 to safen Herbicide No. 1 according to Procedure I using corn and the weeds barnyardgrass and velvetleaf as the test plants.
In the tests described in this example, the same procedure described in Example 4 was performed simultaneously therewith and under the same conditions, except that a co-herbicide, alachlor, was included in the same composition with Herbicide No. 1 and Antidote Nos. 15 and 16. Alachlor (Herbicide No. 7 herein) is the active ingredient in the commercial product LASSO® herbicide.

Data set [8] relates to corn. Description: Example 15, Procedure II: Herbicide No. 1 + butylate (No. 10) with antidotes. Type of data set: in vivo. On the procedure:
as §1, §2, §3
This example describes experiments designed to investigate the antidotal efficacy of a plurality of antidotes against the herbicidal action of a combination of Herbicide No. 1 and butylate in corn and the prevalent weeds barnyardgrass and velvetleaf. The antidotes used in these experiments were Nos. 1-10, 12, 13 and 15.
The test procedure used in these experiments was that of Procedure II described above. The antidotes were applied to a soil cover layer by pipet after spraying the herbicides onto the soil, followed by incorporation and overhead irrigation.

The mark [9] stands for this setting: Herbicide No.1 0.14 kg/ha + Herbicide No.13 2.24 kg/ha, antidote rate 2.24 kg/ha.
Where [10] appears, read: Herbicide No.1 0.14 kg/ha + Herbicide No.13 2.24 kg/ha, antidote rate 8.96 kg/ha.
Setting [11] is: Herbicide No.1 0.56 kg/ha + Herbicide No.13 2.24 kg/ha, antidote rate 2.24 kg/ha.
The mark [12] stands for this setting: Herbicide No.1 0.56 kg/ha + Herbicide No.13 2.24 kg/ha, antidote rate 8.96 kg/ha.
The mark [13] stands for this setting: Herbicide No.1 0.56 kg/ha alone, no antidote.
Setting [14] is: Herbicide No.1 1.12 kg/ha alone, no antidote.

The record followed here is patent publication EP0603240B1, “SAFENING HERBICIDAL PYRAZOLYLSULFONYLUREAS” (priority 1991, dated 1993).

As a reminder, the inhibition is the change of the read-out against control, counted positive when it falls.

For the compound `O=C1OC(=O)c2cccc3cccc1c23` [compound 2], the “% Injury BYG” value in data set [1] (setting [9]), in data set [1] (setting [10]), in data set [1] (setting [11]) and in data set [1] (setting [12]) was 100% each time. For the same compound, the “% Injury VL” value in data set [2] (setting [9]) stood at 80%; in data set [2] (setting [10]), 75%; in data set [2] (setting [11]) it was 85%; in data set [2] (setting [12]) it was 80%. Also, the “% Inhibition Corn” value with corn [3] (Herbicide No. 1 0.25 G/ha + antidote as seed treatment (concentration not measured)) came to 18.2%; in the data set on corn [3] (Herbicide No. 1 0.74 G/ha + antidote as seed treatment (concentration not measured)), 31.2%; in the data set on corn [3] (Herbicide No. 2 0.25 G/ha + antidote as seed treatment (concentration not measured)), 31.5%; with corn [3] (Herbicide No. 2 0.74 G/ha + antidote as seed treatment (concentration not measured)), 18.9%; with corn [3] (Herbicide No. 2 2.5 G/ha + antidote as seed treatment (concentration not measured)) it was 31.9%; in the data set on corn [3] (Herbicide No. 3 0.07 G/ha + antidote as seed treatment (concentration not measured)), 13.2%. Moreover, the “% Inhibition Corn” value with corn [3] (Herbicide No. 3 0.25 G/ha + antidote as seed treatment (concentration not measured)) worked out at 29.3%; in the data set with corn [3] (Herbicide No. 3 0.74 G/ha + antidote as seed treatment (concentration not measured)), 46.9%; in the data set on corn [3] (antidote alone as seed treatment (concentration not measured), no herbicide), 17.4%.
In the case of `O=C(C(Cl)Cl)N1CCOC12CCCCC2` [compound 7], the “% Injury BYG” value in data set [1] (setting [9]), in data set [1] (setting [10]), in data set [1] (setting [11]) and in data set [1] (setting [12]) was 100% each time. Also, the “% Injury VL” value amounted to 80% in data set [2] (setting [9]), 75% in data set [2] (setting [10]), 85% in data set [2] (setting [11]) and 85% in data set [2] (setting [12]).
As for `CC1(C)OC(c2ccco2)CN1C(=O)C(Cl)Cl` (stereo not drawn) [Antidote No. 15, Oxazolidine, 3-(dichloroacetyl)-5-(2-furanyl)-2,2-dimethyl], the “safening of corn, assessment in words” value with corn [4] (Herbicides 1 and 14, Table 11) was “outperformed the antidotes (2 and 13) of other chemistries”; in the data set with corn [5] (Herbicide No. 1, Table 3), “excellent protection for corn”; with corn [6] (Herbicide Nos. 1 and 6, Table 13), “most active overall”; in the data set with corn [7] (Herbicide Nos. 1 and 7, Table 5), “substantial safening of corn”.
As to `COC(=O)c1c(Cl)nn(C)c1S(=O)(=O)NC(=O)Nc1nc(OC)cc(OC)n1` [Herbicide No. 1], the “% Injury Corn” value in the data set with corn [4] (setting [13]) turned out to be 65%; in the data set on corn [4] (setting [14]) it was 65%; with corn [5] (Herb. No. 1 0.56 kg/ha), 7%; with corn [5] (Herb. No. 1 1.12 kg/ha) it was 13%; in the data set with corn [5] (Herb. No. 1 2.24 kg/ha), 38%; in the data set with corn [5] (Herb. No. 1 4.48 kg/ha), 60%. In addition, the “% Injury Corn” value in the data set on corn [8] (setting [13]) stood at 20%; with corn [8] (setting [14]), 20%; with corn [6] (Herbicide No.1 0.14 kg/ha alone), 10%; with corn [6] (Herbicide No.1 0.56 kg/ha alone), 55%; with corn [6] (Herbicide No.1 2.24 kg/ha alone), 80%; in the data set with corn [7] (Herbicide No.1 4.48 + No.7 0.56 kg/ha), 95%. Besides, the entries for the “% Injury Corn” value in the data set on corn [7] (Herbicide No.1 4.48 + No.7 2.24 kg/ha), with corn [7] (Herbicide No.1 6.72 + No.7 0.56 kg/ha) and in the data set with corn [7] (Herbicide No.1 6.72 + No.7 (alachlor) 2.24 kg/ha) were 95%, 93% and 95%, respectively. The inhibition at 0.25 g/ha in the data set on corn [3] (Zea mays, pre-emergence, herbicide alone 0.25 G/ha, no antidote, read-out: % Inhibition Corn) was 22.3%. The inhibition at 0.74 g/ha in the data set on corn [3] (Zea mays, pre-emergence, herbicide alone 0.74 G/ha, no antidote) is 32.3%. Further, in the data set with corn [3] (Zea mays, pre-emergence, herbicide alone 2.5 G/ha, no antidote), the inhibition at 2.5 g/ha was determined as 49.9%.
`CC1(C(Cl)Cl)OCCO1` [compound 13]: the “% Injury BYG” value in data set [1] (setting [9]), in data set [1] (setting [10]), in data set [1] (setting [11]) and in data set [1] (setting [12]) was 100% each time. Further, the “% Injury VL” value in data set [2] (setting [9]) was 70%; in data set [2] (setting [10]), 75%; in data set [2] (setting [11]) it was 90%; in data set [2] (setting [12]), 90%. In addition, the “% Injury Corn” value is recorded as 75% with corn [4] (Herbicide No.1 0.56 kg/ha + Herbicide No.14 3.36 kg/ha, antidote rate 2.24 kg/ha); 40% with corn [4] (Herbicide No.1 0.56 kg/ha + Herbicide No.14 3.36 kg/ha, antidote rate 8.96 kg/ha); 60% in the data set on corn [4] (Herbicide No.1 1.12 kg/ha + Herbicide No.14 3.36 kg/ha, antidote rate 2.24 kg/ha); 70% in the data set with corn [4] (Herbicide No.1 1.12 kg/ha + Herbicide No.14 3.36 kg/ha, antidote rate 8.96 kg/ha); 10% in the data set on corn [8] (Herbicide No.1 0.56 kg/ha + Herbicide No.10 6.72 kg/ha, antidote rate 2.24 kg/ha); 15% in the data set on corn [8] (Herbicide No.1 0.56 kg/ha + Herbicide No.10 6.72 kg/ha, antidote rate 8.96 kg/ha). The “% Injury Corn” value with corn [8] (Herbicide No.1 1.12 kg/ha + Herbicide No.10 6.72 kg/ha, antidote rate 2.24 kg/ha) was determined as 20%; in the data set with corn [8] (Herbicide No.1 1.12 kg/ha + Herbicide No.10 6.72 kg/ha, antidote rate 8.96 kg/ha), 0%.
